From patent US20230391726A1, “DIHYDROQUINAZOLINONES AND RELATED ANALOGS FOR INHIBITING YAP/TAZ-TEAD” (THE KATHOLIEKE UNIVERSITEIT LEUVEN, priority 2022, published 2023)

How the values were obtained:
Format in all cases: cell-based
[1] = system: YAP/TAZ-TEAD transcription; experiment: Reporter gene assay for measuring the inhibition of YAP/TAZ-TEAD transcription (TEAD-responsive element luciferase reporter in Hek293T cells); conditions: Homo sapiens, HEK-293T; Hek293T cells transfected with TEAD-responsive element luciferase reporter, 24 hours incubation
Method: Hek293T cells are cultured in DMEM supplemented with 10% fetal bovine serum, Sodium pyruvate, Sodium bicarbonate, L-glutamine. The cells are harvested and transiently transfected with TEAD-responsive element luciferase reporter. Transfected cells are plated in 384-wells plate containing pre-diluted compounds. After 24 hours incubation at 37° C./5% CO2, assay plates were cooled down to RT and levelled to an equal volume per well, prior to the addition of 25 uL luciferase substrate SteadyLite (Perkin Elmer)/well. The plate was shaken for 10 min at 600 rpm, centrifuged for 1 min at 500 rpm and measured with an Envision reader (PerkinElmer). The amount of relative light units produced by the TEAD reporter is used to calculated percent of inhibition.
The percent of reporter inhibition was calculated in the presence of a positive control inhibitor (100% inhibition) versus a condition with the presence of the vehicle basal activity of the reporter (0% inhibition). The ability of a test compound to inhibit this activity was determined as:
Percentage inhibition=[1-((RLU determined in the presence of vehicle−RLU determined for sample with test compound present) divided by (RLU determined in the presence of vehicle−RLU determined for sample with positive control inhibitor))]*100
The activities of example compounds tested are depicted in Table 3. The activity ranges A, B and C refer to IC50 values in the reporter gene assay as follows: “A”: IC50<1 μM; “B”: 1 μM≤IC50≤20 μM and “C”: IC50>20 μM; NT=not tested.

NCl-H226 = experiment: Mesothelioma cell line proliferation assay (ATPlite), NCl-H226; conditions: Homo sapiens, NCI-H226, 144 h, NCl-H226 mesothelioma cells, 6 days incubation
Method: (§1) Mesothelioma cell lines, NCl-H226 and NCl-H2052 (all sourced from the ATCC cell culture collection) are plated in 96-well plates (Corning® 96 Well White Polystyrene Microplate clear flat bottom, white polystyrene (TC-Treated)), at 1500 cells/well in full medium (RPMI 1640 ATCC modification with L-glutamine, HEPES, Phenol Red, Sodium Pyruvate, High glucose, Low sodium bicarbonate and 10% fetal bovine serum). Cells are incubated overnight at 37° C. in an incubator with 5% CO2. Then compounds, dissolved in DMSO, are added in dose-response. Cells are incubated with compound dilutions for another 6 days at 37° C. in an incubator with 5% CO2. Cell viability is quantitated using the ATPlite kit (Perkin-Elmer) and the luminescence is read-out using an Envision instrument (Perkin-Elmer). The amount of relative light units produced using the ATPlite kit is used to calculated percent of inhibition.
(§2) The activities of some example compounds are depicted in Table 4. The activity ranges A, B and C refer to EC50 values in the mesothelioma cell line proliferation assay as described as follows: “A”: EC50<1 μM; “B”: 1 μM≤EC50≤10 μM and “C”: EC50>10 μM; NT: not tested.

NCl-H2052 = experiment: Mesothelioma cell line proliferation assay (ATPlite), NCl-H2052; conditions: Homo sapiens, NCI-H2052, 144 h, NCl-H2052 mesothelioma cells, 6 days incubation
Method: as §1, §2

| Structure (SMILES) | EC50 [1] [µM] | EC50 (NCl-H226) [µM] | EC50 (NCl-H2052) [µM] |
| --- | --- | --- | --- |
| NC(=O)CN1CN(c2ccc(C(F)(F)F)cc2)c2ccccc2C1=O [Cpd. No. 5, 2-(4-oxo-1-(4-(trifluoromethyl)phenyl)-1,4-dihydroquinazolin-3(2H)-yl)acetamide] | > 20 |  |  |
| CNC(=O)CN1CN(c2ccc(C(F)(F)F)cc2)c2ccccc2C1=O [Cpd. No. 6, N-methyl-2-(4-oxo-1-(4-(trifluoromethyl)phenyl)-1,4-dihydroquinazolin-3(2H)-yl)acetamide] | > 20 |  |  |
| O=C(O)CN1CN(c2ccc(C(F)(F)F)cc2)c2ccccc2C1=O [Cpd. No. 3, 2-(4-oxo-1-(4-(trifluoromethyl)phenyl)-1,4-dihydroquinazolin-3(2H)-yl)acetic acid] | 1 to 20 |  |  |

Now from value to compound:

| EC50 [1] [µM] | EC50 (NCl-H226) [µM] | EC50 (NCl-H2052) [µM] | Structure (SMILES) |
| --- | --- | --- | --- |
| 1 to 20 |  |  | O=C1c2ccccc2N(c2ccc(C(F)(F)F)cc2)CN1CCCO [Cpd. No. 2, 3-(3-hydroxypropyl)-1-(4-(trifluoromethyl)phenyl)-2,3-dihydroquinazolin-4(1H)-one] |
| 1 to 20 |  |  | O=C1c2ccccc2N(c2ccc(C(F)(F)F)cc2)CN1CCO [Cpd. No. 4, 3-(2-hydroxyethyl)-1-(4-(trifluoromethyl)phenyl)-2,3-dihydroquinazolin-4(1H)-one] |
| 1 to 20 | > 10 | > 10 | O=C1NCN(c2ccc(C(F)(F)F)cc2)c2ccccc21 [Cpd. No. 1, 1-(4-(trifluoromethyl)phenyl)-2,3-dihydroquinazolin-4(1H)-one] |
| 1 to 20 |  |  | C=CC(=O)NC1CN(c2ccccc2)c2ccccc2C1=O (stereo not drawn) [Cpd. No. 7, N-(4-oxo-1-phenyl-1,2,3,4-tetrahydroquinolin-3-yl)acrylamide] |
